Laboratory results as given in article PMC10088926, “Synthesis, DFT calculations, and anti-proliferative evaluation of pyrimidine and selenadiazolopyrimidine derivatives as dual Topoisomerase II and HSP90 inhibitors” (Journal of Enzyme Inhibition and Medicinal Chemistry, 2023).
“Also recorded” adds a separate entry of the source. Where two headings read alike, the source gives them in different places.

Assays:
[1] = tested on: HepG-2 cells (human Hepatocellular carcinoma); assay: In vitro cytotoxicity, viability assay (MTT method), HepG-2; type: cell-based; conditions: HepG2, 24 h incubation, triplicate, read-out: IC50 values (mean ± SD) HepG-2
Method: (§1) All experiments were conducted in triplicate.
(§2) Scaffold I compounds were characterised by the uracil core attached to the 5,5-dimethyl cyclohexanone moiety through an NH linker and bearing an amino group at position 6. The activity of such compounds could be attributed to the larger number of hydrogen bond donors when compared to compounds with scaffold II. On the other hand, the activity of 5d with scaffold II could be attributed to the nature of the substituent at N1 of the pyrimidine ring being a hydrophobic benzyl group that could be involved in hydrophobic interaction and π-π stacking. Generally, the isosteric substitution of oxo with thioxo at position 2 of the pyrimidine ring lowered the anti-proliferative activity in both scaffolds I and II compounds.

[2] = tested on: A-549 cells (lung carcinoma); assay: In vitro cytotoxicity, viability assay (MTT method), A-549; type: cell-based; conditions: Homo sapiens, A549, 24 h incubation, triplicate, read-out: IC50 values (mean ± SD) A-549
Method: as §1, §2

[3] = tested on: MCF-7 cells (human breast cancer cell line); assay: In vitro cytotoxicity, viability assay (MTT method), MCF-7; type: cell-based; conditions: MCF7, 24 h incubation, triplicate, read-out: IC50 values (mean ± SD) MCF-7
Method: as §1, §2

[4] = tested on: MCF-7, HepG-2 and A-549 cells; assay: Anti-proliferative screening, classification over the three cell lines; type: cell-based; conditions: compared to methotrexate
Method: as §1, §2

Topoisomerase II = target: T1, Topoisomerase II (Homo sapiens, UniProt P11388); assay: In vitro Topoisomerase II enzyme inhibition assay (plasmid-based kit); type: biochemical
T1 construct: purchased
T1 sequence (P11388 whole entry): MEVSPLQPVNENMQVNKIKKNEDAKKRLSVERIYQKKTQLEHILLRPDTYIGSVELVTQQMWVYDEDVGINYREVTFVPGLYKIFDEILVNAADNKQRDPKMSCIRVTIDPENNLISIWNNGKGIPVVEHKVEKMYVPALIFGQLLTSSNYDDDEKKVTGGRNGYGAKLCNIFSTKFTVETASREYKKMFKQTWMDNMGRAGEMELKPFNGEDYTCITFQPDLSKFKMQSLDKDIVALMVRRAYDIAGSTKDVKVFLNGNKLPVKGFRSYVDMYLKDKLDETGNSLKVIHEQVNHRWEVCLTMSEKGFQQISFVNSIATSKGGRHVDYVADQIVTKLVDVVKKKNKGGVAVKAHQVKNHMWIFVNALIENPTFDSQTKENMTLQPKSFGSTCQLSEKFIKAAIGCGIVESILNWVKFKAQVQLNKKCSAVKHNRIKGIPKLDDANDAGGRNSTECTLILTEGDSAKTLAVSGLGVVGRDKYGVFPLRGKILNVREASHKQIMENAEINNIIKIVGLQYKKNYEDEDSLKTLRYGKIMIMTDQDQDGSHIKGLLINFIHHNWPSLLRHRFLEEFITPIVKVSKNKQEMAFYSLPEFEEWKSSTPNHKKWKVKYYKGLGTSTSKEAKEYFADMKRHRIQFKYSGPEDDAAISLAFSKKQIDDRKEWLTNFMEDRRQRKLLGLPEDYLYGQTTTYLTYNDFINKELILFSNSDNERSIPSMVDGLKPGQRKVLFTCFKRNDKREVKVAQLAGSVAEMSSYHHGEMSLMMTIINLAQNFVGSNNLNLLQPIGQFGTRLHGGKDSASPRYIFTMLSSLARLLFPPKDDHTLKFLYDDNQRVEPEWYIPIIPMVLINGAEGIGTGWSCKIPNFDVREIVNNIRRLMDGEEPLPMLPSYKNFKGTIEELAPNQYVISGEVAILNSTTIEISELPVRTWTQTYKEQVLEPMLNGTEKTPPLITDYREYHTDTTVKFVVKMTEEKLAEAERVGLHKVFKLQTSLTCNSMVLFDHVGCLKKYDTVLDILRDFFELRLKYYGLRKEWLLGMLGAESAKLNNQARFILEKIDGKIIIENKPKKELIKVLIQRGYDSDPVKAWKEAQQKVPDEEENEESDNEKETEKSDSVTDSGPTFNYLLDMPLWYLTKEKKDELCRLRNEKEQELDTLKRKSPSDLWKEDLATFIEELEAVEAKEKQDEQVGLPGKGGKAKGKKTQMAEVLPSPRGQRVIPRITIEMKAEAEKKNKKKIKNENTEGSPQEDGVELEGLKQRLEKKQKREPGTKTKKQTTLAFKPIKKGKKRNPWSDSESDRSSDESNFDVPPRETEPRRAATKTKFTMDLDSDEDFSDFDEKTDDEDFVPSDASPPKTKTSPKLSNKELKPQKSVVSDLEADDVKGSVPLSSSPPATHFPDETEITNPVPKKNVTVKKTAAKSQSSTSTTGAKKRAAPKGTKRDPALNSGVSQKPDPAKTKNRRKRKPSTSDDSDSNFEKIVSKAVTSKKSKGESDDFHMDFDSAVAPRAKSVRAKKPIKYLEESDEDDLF
Method: (§3) In vitro enzyme inhibitory assay of compounds 3a and 5d was performed against Topoisomerase-II enzyme using Topoisomerase II Assay Kit (plasmid-based)[34] and HSP90 enzyme using HSP90 (C-Terminal) Inhibitor Screening Assay Kit[35]. The procedure of the used kits was done according to the manufacturer’s instructions.
Topoisomerase II inhibitors can cause DNA damage and halt the cell cycle.

HSP90 = assay: In vitro HSP90 enzyme inhibition assay (HSP90 (C-Terminal) Inhibitor Screening Assay Kit); type: biochemical; conditions: read-out: HSP90 IC50 (mean ± SD)
Method: as §3
As reported, cancer cell growth and proliferation are inhibited when HSP90 is inhibited.

HepG-2 cells [5] = assay: Flow cytometric analysis of cell-cycle distribution (propidium iodide); type: cell-based, human
Method: Cell-cycle analysis was performed by DNA staining with propidium iodide (PI) following the manufacturer’s protocol (Abcam, USA)[36]. HepG-2 cells were cultured following the procedure till exponential growth was reached. After removing the culture media, the cells were rinsed with phosphate buffer. Cells were then treated with 3a and suspended in 66% ethanol on the ice at 4 °C. Then, PI was added together with the RNase staining solution. Incubation was allowed for 20–30 min at 37 °C in the dark. For the preparation of flow cytometry, fixed cells were placed on ice. Podium iodide fluorescence was collected using 488 nm laser illumination.
Thus, it was studied further to determine the mechanism of its cell growth inhibition. The standard PI flow cytometry assay was used to investigate cell cycle distribution and apoptosis induction in HepG-2 cells. […] 3a halts the cell cycle of HepG-2 at the G1-S phase.

HepG-2 cells [6] = assay: Cellular apoptosis analysis (Annexin V-FITC/PI); type: cell-based, human; conditions: HepG-2, 14.31 μM, 24 h; untreated cells 0.58%
Method: Annexin V is a protein that has a high affinity to bind to membrane phosphatidylserine (PS) translocated from the inner cellular plasma membrane to the cell surface after apoptosis initiation following the manufacturer protocol (Biovision, USA)[37]. HepG-2 cells in exponential growth were treated with compound 3a and incubated for 24 h. Then, 1–5 × 10^5 were collected via centrifugation and suspended in 500 µL of 1X Binding Buffer, 5 µL of Annexin V-FITC, and 5 µL of propidium iodide were added and allowed to incubate in the dark for 5 min, then Annexin V-FITC binding was quantified by flow cytometry using emission signal detector at 530 nm.
Using HepG-2 cells and the Annexin FITC/PI dual-labelling technique, 3a-induced apoptosis was investigated.

caspase-3 gene = caspase-3 gene expression (RT-PCR) in HepG-2; type: cell-based, human; conditions: HepG-2, compared to control cells
Method: (§4) The level of Topoisomerase II, HSP90, and caspase-3 gene expression were assessed using Bio-Rad RT-PCR Kit following the manufacturer’s instructions. HepG-2 cells were exponentially grown and then treated with 3a after treatment with DNA polymerase and fluorescein. The expression of Topoisomerase II, HSP90, and caspase-3 genes was measured fluorometrically.
(§5) A caspase family is a group of cysteine proteases that activates apoptosis through receptor or mitochondrial-dependent cell death. Caspase-3 activation catalyses the cleavage of key cellular proteins, leading to both mitochondrial-dependent and non-dependent cell death. Caspase-3 is also associated with cell rupture and the formation of apoptotic bodies. The effect of 3a on caspase-3 gene expression was studied in HepG-2 cell lines. […] The gene that encodes DNA Topoisomerase II controls the topology of […] during DNA transcription. This gene is a target for anti-proliferative agents by altering enzyme activity. In the present work, the effect of 3a on the expression of the gene encoding Topoisomerase II in the supernatant of HepG-2 cell lines was studied. […] Furthermore, the HSP90 encoding gene interferes with the proper folding of specified protein targets and interferes with ATP binding.

[7] = tested on: gene encoding Topoisomerase II; assay: Topoisomerase II gene expression (RT-PCR) in HepG-2; type: cell-based, human; conditions: supernatant of HepG-2 cell lines, compared to control cells
Method: as §4, §5

gene encoding HSP90 = assay: HSP90 gene expression (RT-PCR) in HepG-2; type: cell-based, human; conditions: supernatant of HepG-2 cell lines, compared to control cells
Method: as §4, §5

[8] = In vitro cytotoxicity against normal WI-38 cell line; conditions: human
From the text: The viability assay (MTT method)[33] was used to evaluate the cytotoxic activity of the synthesised compounds against three mammalian tumour cell lines obtained from the VACSERA Tissue Culture Unit, namely MCF-7 cells (human breast cancer cell line), HepG-2 cells (human Hepatocellular carcinoma), and A-549 cells (lung carcinoma), as well as the normal WI-38 human cell line for both compounds 3a and 5d. […] 1% Crystal violet stain: it is composed of 0.5% (w/v) crystal violet and 50% methanol, which is then diluted to volume with ddH2O and filtered through a Whatman No.1 filter paper. Dulbecco’s modified Eagle’s medium (DMEM) supplemented with 10% heat-inactivated foetal bovine serum, 1% L-glutamine, HEPES buffer, and 50 μg/mL gentamycin was used to grow the cells. All cells were cultured twice a week and kept at 37 °C in a humidified atmosphere with 5% CO2. In 100 μL of the growth medium, the cells were seeded in a 96-well plate at a cell concentration of 1 × 10^4 cells per well. After 24 h of seeding, a fresh medium containing different concentrations of the test sample was added. A multichannel pipette was used to add serial two-fold dilutions of the tested chemical compound to confluent cell monolayers dispensed into 96-well, flat-bottomed microtiter plates (Falcon, NJ, USA). The microtiter plates were incubated for 24 h at 37 °C in a humidified incubator with 5% CO2. For each concentration of the test sample, three wells were used. […] Glacial acetic acid (30%) was thoroughly mixed into all wells, and the absorbance of the plates was measured. Background absorbance detected in wells without added stain was corrected for in all results. […] Each tested compound’s cytotoxic effect on cells was calculated. To determine the number of viable cells, the optical density was measured using a microplate reader (Sunrise, TECAN, Inc, USA), and the percentage of viability was calculated as [(ODt/ODc)] × 100%, where ODt is the mean optical density of wells treated with the tested sample and ODc is the mean optical density of untreated cells. […]

| SMILES | melting point [°C] | IC50 [1] [µM] | IC50 [2] [µM] | IC50 [3] [µM] | anti-proliferative activity category [4] | further results |
| --- | --- | --- | --- | --- | --- | --- |
| Nc1c(N=[Se]=O)c(=O)[nH]c(=O)n1Cc1ccccc1Cl | > 300 |  |  |  |  |  |
| O=c1[nH]cc(F)c(=O)[nH]1 [5-Fluorouracil, reference compound] |  | 7.37 ± 0.29 | 12.3 ± 0.53 | 10.1 ± 0.44 |  |  |
| CC1(C)CC(=O)C=C(Nc2c(N)[nH]c(=O)[nH]c2=O)C1 [Compound 3a, 6-Amino-5-((5,5-dimethyl-3-oxocyclohex-1-en-1-yl)amino)pyrimidine-2,4(1H,3H)-dione] |  | 14.3 ± 0.83 | 30.7 ± 0.76 | 27.1 ± 1.91 | moderate to high | IC50 (Topoisomerase II; in vitro enzyme assay, read-out: Topoisomerase II IC50 (mean ± SD)): 4.48 ± 0.65 µM; IC50 (HSP90): 1.78 ± 0.11 µM; phase at which the cell cycle is halted (HepG-2 cells [5]; HepG-2): G1-S phase; %DIP G1 (cells in the G1-S phase) (HepG-2 cells [5]; HepG-2, 14.31 μM, untreated cells 43.82% (±2.61)): 51.46%; total apoptotic cells (HepG-2 cells [6]): 37.93%; caspase-3 gene expression (caspase-3 gene): upregulating; also recorded: increased; also recorded: upregulated; Topoisomerase II gene expression [7]: downregulating; also recorded: downregulate; HSP90 gene expression (gene encoding HSP90): downregulating; also recorded: downregulated; IC50 at 24 h [8]: 80.8 ± 3.04 µM |
| CC1(C)CC(=O)C=C(Nc2c(N)n(Cc3ccccc3Cl)c(=O)[nH]c2=O)C1 [Compound 3b, 6-Amino-1-(2-chlorobenzyl)-5-((5,5-dimethyl-3-oxocyclohex-1-en-1-yl)amino)pyrimidine-2,4(1H,3H)-dione] | 294 to 296 | 40.4 ± 1.25 | 36.4 ± 1.09 | 46.1 ± 1.63 | low to moderate |  |
| Cn1c(N)c(NC2=CC(=O)CC(C)(C)C2)c(=O)[nH]c1=S [Compound 3c, 6-Amino-5-((5,5-dimethyl-3-oxocyclohex-1-en-1-yl)amino)-1-methyl-2-thioxo-2,3-dihydropyrimidin-4(1H)-one] | > 300 | > 100 | > 100 | > 100 | low |  |
| CCn1c(N)c(NC2=CC(=O)CC(C)(C)C2)c(=O)[nH]c1=O [Compound 3d, 6-Amino-5-((5,5-dimethyl-3-oxocyclohex-1-en-1-yl)amino)-1-ethylpyrimidine-2,4(1H,3H)-dione] | > 300 | 21.6 ± 0.76 | 33.3 ± 0.99 | 31.4 ± 1.39 | moderate to high |  |
| CC1(C)CC(=O)C=C(Nc2c(N)n(Cc3ccccc3)c(=O)[nH]c2=O)C1 [Compound 3e, 6-Amino-1-benzyl-5-((5,5-dimethyl-3-oxocyclohex-1-en-1-yl)amino)pyrimidine-2,4(1H,3H)-dione] | 292 to 294 | 47.6 ± 1.39 | 44 ± 1.28 | > 100 | low to moderate |  |
| Cn1c(N)c(NC2=CC(=O)CC(C)(C)C2)c(=O)[nH]c1=O [Compound 3f, 6-Amino-5-((5,5-dimethyl-3-oxocyclohex-1-en-1-yl)amino)-1-methylpyrimidine-2,4(1H,3H)-dione] | > 300 | > 100 | > 100 | > 100 | low |  |
| O=c1[nH]c(=O)c2n[se]nc2[nH]1 [Compound 5a, [1,2, 5]selenadiazolo[3,4-d]pyrimidine-5,7(4H,6H)-dione] | > 300 | 51.7 ± 2.09 | 58 ± 2.13 | 51.9 ± 1.48 | low to moderate |  |
| Cn1c(=S)[nH]c(=O)c2n[se]nc21 [Compound 5b, 4-Methyl-5-thioxo-5,6-dihydro-[1,2,5]selenadiazolo[3,4-d]pyrimidin-7(4H)-one] | > 300 | 57.9 ± 2.43 | 68.7 ± 3.86 | 98.1 ± 3.45 | low to moderate |  |
| CCn1c(=O)[nH]c(=O)c2n[se]nc21 [Compound 5c, 4-Ethyl-[1,2, 5]selenadiazolo[3,4-d]pyrimidine-5,7(4H,6H)-dione] | > 300 | 33.4 ± 1.09 | 42.5 ± 1.19 | 39.7 ± 1.32 |  |  |
| O=c1[nH]c(=O)n(Cc2ccccc2)c2n[se]nc12 [Compound 5d, 4-Benzyl-[1,2, 5]selenadiazolo[3,4-d]pyrimidine-5,7(4H,6H)-dione] | 260 to 261 | 17.7 ± 0.81 | 26.8 ± 0.89 | 29.3 ± 0.86 | moderate to high | IC50 (Topoisomerase II): 8.39 ± 1.07 µM; IC50 (HSP90): 7.69 ± 0.46 µM; IC50 at 24 h [8]: 54.6 ± 2.05 µM |
| Cn1c(=O)[nH]c(=O)c2n[se]nc21 [Compound 5e, 4-Methyl-[1,2, 5]selenadiazolo[3,4-d]pyrimidine-5,7(4H,6H)-dione] | > 300 | > 100 | > 100 | > 100 | low |  |
| Cn1c(=O)c2n[se]nc2n(C)c1=O [Compound 7, 4,6-Dimethyl-[1,2, 5]selenadiazolo[3,4-d]pyrimidine-5,7(4H,6H)-dione] | 278 to 280 | > 100 | > 100 | > 100 | low |  |
| COc1cccc2c1C(=O)c1c(O)c3c(c(O)c1C2=O)C[C@@](O)(C(=O)CO)C[C@@H]3O[C@H]1C[C@H](N)[C@H](O)[C@H](C)O1 [Doxorubicin, reference compound] |  |  |  |  |  | IC50 at 24 h [8]: 19.6 ± 0.74 µM |
| CN(Cc1cnc2nc(N)nc(N)c2n1)c1ccc(C(=O)N[C@@H](CCC(=O)O)C(=O)O)cc1 [Methotrexate, reference compound] |  | 21.9 ± 1.08 | 34.5 ± 2.19 | 29.5 ± 2.19 |  |  |
